Read-outs that look alike come from different tables or passages of the source.
What was measured:
A156T HCV replicon cells = assay: HCV replicon cell assay, 48-hour; assay type: cell-based, Hepatitis C virus
From the text: (§1) During the course of generating of the HCV sub-genomic replicon stable cell lines, several different patterns of adaptive mutations were identified. One pattern has three substitutions in the HCV nonstructural proteins, which were introduced into the original pBR322-HCV-Neo plasmid by site-directed mutagenesis to generate the second-generation sub-genomic replicon plasmid, pBR322-HCV-Neo-mADE. When the T7 run-offRNA transcripts from the Sca I-linearized pBR322-HCV-Neo-mADE plasmid were electroporated into Huh7 cells, stable replicon cell colonies were formed at a much higher efficiency than the original Con1 replicon RNA. The resistance mutations identified in this study were introduced into the pBR322-HCV-Neo-mADE replicon plasmid by site-directed mutagenesis. Stable replicon cell lines were generated using the T7 transcripts derived from either wild type pBR322-HCV-Neo-mADE or the ones with the resistance mutations.
(§2) Cells containing hepatitis C virus (HCV) replicon were maintained in DMEM containing 10% fetal bovine serum (FBS), 0.25 mg per ml of G418, with appropriate supplements (media A).
(§3) On day 1, replicon cell monolayer was treated with a trypsin:EDTA mixture, removed, and then media A was diluted into a final concentration of 100,000 cells per ml with. 10,000 cells in 100 ul were plated into each well of a 96-well tissue culture plate, and cultured overnight in a tissue culture incubator at 37° C.
(§4) On day 2, compounds (in 100% DMSO) were serially diluted into DMEM containing 2% FBS, 0.5% DMSO, with appropriate supplements (media B). The final concentration of DMSO was maintained at 0.5% throughout the dilution series.
(§5) Media on the replicon cell monolayer was removed, and then media B containing various concentrations of compounds was added. Media B without any compound was added to other wells as no compound controls.
(§6) Cells were incubated with compound or 0.5% DMSO in media B for 48 hours in a tissue culture incubator at 37° C. At the end of the 48-hour incubation, the media was removed, and the replicon cell monolayer was washed once with PBS and stored at −80° C. prior to RNA extraction.
(§7) Culture plates with treated replicon cell monolayers were thawed, and a fixed amount of another RNA virus, such as Bovine Viral Diarrhea Virus (BVDV) was added to cells in each well. RNA extraction reagents (such as reagents from RNeasy kits) were added to the cells immediately to avoid degradation of RNA. Total RNA was extracted according the instruction of manufacturer with modification to improve extraction efficiency and consistency. Finally, total cellular RNA, including HCV replicon RNA, was eluted and stored at −80° C. until further processing.
(§8) A Taqman real-time RT-PCR quantification assay was set up with two sets of specific primers and probe. One was for HCV and the other was for BVDV. Total RNA extractants from treated HCV replicon cells was added to the PCR reactions for quantification of both HCV and BVDV RNA in the same PCR well. Experimental failure was flagged and rejected based on the level of BVDV RNA in each well. The level of HCV RNA in each well was calculated according to a standard curve run in the same PCR plate. The percentage of inhibition or decrease of HCV RNA level due to compound treatment was calculated using the DMSO or no compound control as 0% of inhibition. The cytotoxicity of the compounds was measured using a mitochondrial enzyme-based cell viability assay, CellTiter 96 AQueous One Solution Cell Proliferation Assay (Promega).
(§9) Table 6 summary: Three HCV sub-genomic replicon stable cell lines, including the wild-type, and two mutants, A156T and A156V, were generated using the T7 RNA runoff transcripts from the corresponding high efficiency Con 1 replicon plasmids.

A156V HCV replicon cells = assay: HCV replicon cell assay, 48-hour; assay type: cell-based, Hepatitis C virus
From the text: as §1, §2, §3, §4, §5, §6, §7, §8, §9

[1] = target: T1, D168A mutant HCV NS3 serine protease domain (Hepatitis C virus genotype 1b, UniProt Q9WMX2, D1194A); assay: FRET enzyme assay, Ki; assay type: biochemical
T1 construct: A DNA fragment encoding residues Ala^1-Ser^181 of the HCV NS3 protease (GenBank CAB46913); hexa-histidine (C); made in house; host or cells: E. coli BL21/DE3 pLysS

[2] = system: series C (double-resistant) replicon cells; assay: HCV replicon cell assay, 48-hour; assay type: cell-based, Hepatitis C virus; conditions: 30 μM VX-950, series C replicon cells at day 52
[3] = target: wild type HCV NS3 serine protease domain, genotype 1b (Hepatitis C virus genotype 1b, UniProt Q9WMX2); assay: biochemical
[4] = target: T2, A156S mutant HCV NS3 serine protease domain (Hepatitis C virus genotype 1b, UniProt Q9WMX2, A1182S); assay: FRET enzyme assay, Ki; assay type: biochemical
T2 construct: A DNA fragment encoding residues Ala^1-Ser^181 of the HCV NS3 protease (GenBank CAB46913); hexa-histidine (C); made in house; host or cells: E. coli BL21/DE3 pLysS

[5] = target: T3, A156T mutant HCV NS3 serine protease domain (Hepatitis C virus genotype 1b, UniProt Q9WMX2, A1182T); assay: FRET enzyme assay, Ki; assay type: biochemical
T3 construct: A DNA fragment encoding residues Ala^1-Ser^181 of the HCV NS3 protease (GenBank CAB46913); hexa-histidine (C); made in house; host or cells: E. coli

[6] = target: T4, D168V mutant HCV NS3 serine protease domain (Hepatitis C virus genotype 1b, UniProt Q9WMX2, D1194V); assay: FRET enzyme assay, Ki; assay type: biochemical
T4 construct: A DNA fragment encoding residues Ala^1-Ser^181 of the HCV NS3 protease (GenBank CAB46913); hexa-histidine (C); made in house; host or cells: E. coli BL21/DE3 pLysS

D168V HCV replicon cells = assay: HCV replicon cell assay, 48-hour; assay type: cell-based, Hepatitis C virus; conditions: Hepatitis C virus, 48 h, read-out: Replicon IC50
From the text: as §1, §2, §3, §4, §5, §6, §7, §8
(§10) Four HCV sub-genomic replicon stable cell lines, including the wild type (wt), and three mutants, A156S, D168V and D168A, were generated using the T7 RNA runoff transcripts from the corresponding high efficiency Con1 replicon plasmids.

D168A HCV replicon cells = assay: HCV replicon cell assay, 48-hour; assay type: cell-based, Hepatitis C virus; conditions: Hepatitis C virus, 48-hour assay
From the text: as §1, §2, §3, §4, §5, §6, §7, §8, §10

A156S HCV replicon cells = assay: HCV replicon cell assay, 48-hour; assay type: cell-based, Hepatitis C virus
From the text: as §1, §2, §3, §4, §5, §6, §7, §8, §10

[7] = system: wild type HCV replicon cells (high efficiency Con1 replicon); assay: HCV replicon cell assay, 48-hour; assay type: cell-based, Hepatitis C virus; conditions: 48-hour assay, HCV RNA level, read-out: Replicon IC50
From the text: as §1, §2
On day 1, replicon cell monolayer was treated with a trypsin:EDTA mixture, removed, and then media A was diluted into a final concentration of 100,000 cells per ml with. […]
as §8, with “One was for HCV and the other was for BVDV.” left out, “Experimental failure was flagged and rejected based on the level of BVDV RNA in each well.” left out, “(Promega). […]” for “(Promega).”

[8] = system: series D (double-resistant) replicon cells; assay: HCV replicon cell assay, 48-hour; assay type: cell-based, Hepatitis C virus
[9] = system: series B (BILN 2061-resistant) replicon cells; assay: HCV replicon cell assay, 48-hour; assay type: cell-based; conditions: Hepatitis C virus
[10] = system: wild-type HCV Con1 sub-genomic replicon cells; assay: HCV replicon cell assay, 48-hour; assay type: cell-based, Hepatitis C virus; conditions: Hepatitis C virus, 48-hour assay
Method: as §2, §3
On day 2, compounds (in 100% DMSO) were serially diluted into DMEM containing 2% FBS, 0.5% DMSO, with appropriate supplements (media B). […]
as §8, with “One was for HCV and the other was for BVDV.” left out, “Experimental failure was flagged and rejected based on the level of BVDV RNA in each well.” left out

[11] = target: T5, A156V mutant HCV NS3 serine protease domain (Hepatitis C virus genotype 1b, UniProt Q9WMX2, A1182V); assay: FRET enzyme assay, Ki; assay type: biochemical
T5 construct: A DNA fragment encoding residues Ala^1-Ser^181 of the HCV NS3 protease (GenBank CAB46913); hexa-histidine (C); made in house; host or cells: E. coli

[12] = system: series A (VX-950-resistant) replicon cells; assay: HCV replicon cell assay, 48-hour; assay type: cell-based, Hepatitis C virus; conditions: Hepatitis C virus; series A replicon cells at day 56
[13] = Hepatitis C virus, 48-hour assay

Compound: CCC[C@H](NC(=O)C1[C@H]2CCC[C@H]2CN1C(=O)[C@@H](NC(=O)[C@@H](NC(=O)c1cnccn1)C1CCCCC1)C(C)(C)C)C(=O)C(=O)NC1CC1 (some centres unmarked) [VX-950]
- decrease in sensitivity conferred by the mutation (A156T HCV replicon cells): at least 75 fold
- IC50 (A156T HCV replicon cells; [13]): > 30000 nM
- reduction of HCV replicon RNA (A156T HCV replicon cells; up to 30 μM VX-950): No significant reduction
- decrease in sensitivity conferred by the mutation (A156V HCV replicon cells): at least 75 fold
- IC50 (A156V HCV replicon cells; [13]): > 30000 nM
- reduction of HCV replicon RNA (A156V HCV replicon cells; up to 30 μM VX-950): No significant reduction
- Ki [1]: 150 nM
- reduction of HCV RNA [2]: ≤ 50%
- Ki [3]: 100 nM
- Ki [4]: 2900 nM
- Ki higher than against the wild type protease [4]: 29 fold
- Ki [5]: 9900 nM
- Ki [6]: 43 nM
- IC50 (D168V HCV replicon cells): 163 nM
- IC50 (D168A HCV replicon cells): 193 nM
- IC50 (A156S HCV replicon cells; Hepatitis C virus): 4650 nM
- IC50 (A156S HCV replicon cells; Hepatitis C virus, 48 h, 48-hour assay, read-out: Replicon IC50): 4650 nM
- IC50 (A156S HCV replicon cells; read-out: Replicon IC50, 48-hour assay): 5090 nM
- IC50 [7]: 402 nM
- IC50 ([7]; Hepatitis C virus, 48 h): 400 nM
- reduction of HCV RNA ([8]; 30 μM VX-950, series D replicon cells at day 52): ≤ 50%
- IC50 higher than against the series B replicon cells ([8]; series D replicon cells at day 52): more than 100 fold
- IC50 [9]: ~300 nM
- IC50 [10]: 354 nM
- Ki [11]: 33000 nM
- IC50 [12]: 8100 to 12000 nM
